Data from patent US20170114049A1, “2,5-DISUBSTITUTED CYCLOPENTANE CARBOXYLIC ACIDS FOR THE TREATMENT OF RESPIRATORY TRACT DISEASES” (BAYER PHARMA AKTIENGESELLSCHAFT, priority 2014, published 2017).

Experiments:
Type in all cases: biochemical
[1] = target: T1, MMP-3 (Homo sapiens, UniProt P08254); assay: In vitro MMP-3 inhibition test
T1 construct: purchased R&D Systems 513-MP
Source text: (§1) The MMP-mediated amidolytic cleavage of a suitable peptide substrate leads to an increase in fluorescent light here too. The signal intensity of the fluorescent light is directly proportional to the enzyme activity. The active concentration of a test compound at which half the enzyme is inhibited (50% signal intensity of the fluorescent light) is reported as the […].
(§2) Recombinant MMP-3 (from R&D Systems, 513-MP) is chemically activated in accordance with the manufacturer's instructions using APMA. 1 μl of the test compound to be analysed (as a solution in DMSO, suitable concentrations, for example, 1 nM to 30 μM) is pipetted into 24 μl of activated enzyme (final concentration, for example, 2 nM) in reaction buffer (50 mM Tris/HCl pH 7.5, 10 mM CaCl2, 150 mM NaCl, 0.05% Brij®-35) in a white 384-hole microtiter plate (MTP). The enzymatic reaction is started by adding the intramolecularly quenched Mca-Arg-Pro-Lys-Pro-Val-Glu-Nval-Trp-Arg-Lys(Dnp)-NH2 substrate (final concentration, for example, 10 μM; R&D Systems, ES-002), so as to result in a total test volume of 50 μl. The course of the MMP-3 reaction is measured by measuring the fluorescence intensity (excitation 320 nm, emission 410 nm) over a suitable period of time (for example over 120 min at a temperature of 32° C.).

[2] = target: T2, MMP-8 (Homo sapiens, UniProt P22894); assay: In vitro MMP-8 inhibition test
T2 construct: purchased R&D Systems 908-MP
Source text: as §1
as §2, with “Recombinant MMP-8” for “Recombinant MMP-3”, “Systems, 908-MP)” for “Systems, 513-MP)”, “example, 0.5” for “example, 2”, “quenched Mca-Pro-Leu-Gly-Leu-Dpa(Dnp)-Ala-Arg-NH2” for “quenched Mca-Arg-Pro-Lys-Pro-Val-Glu-Nval-Trp-Arg-Lys(Dnp)-NH2”, “Systems, ES-001),” for “Systems, ES-002),”, “the MMP-8” for “the MMP-3”

[3] = target: T3, mouse MMP-2 (Mus musculus, UniProt P33434); assay: In vitro mouse MMP-2 inhibition test
T3 construct: purchased R&D Systems 924-MP
Source text: as §1
as §2, with “Recombinant mouse MMP-2” for “Recombinant MMP-3”, “Systems, 924-MP)” for “Systems, 513-MP)”, “example, 0.1” for “example, 2”, “quenched Mca-Pro-Leu-Gly-Leu-Dpa(Dnp)-Ala-Arg-NH2” for “quenched Mca-Arg-Pro-Lys-Pro-Val-Glu-Nval-Trp-Arg-Lys(Dnp)-NH2”, “Systems, ES-001),” for “Systems, ES-002),”, “the MMP-2” for “the MMP-3”

[4] = target: T4, mouse MMP-7 (Mus musculus, UniProt Q10738); assay: In vitro mouse MMP-7 inhibition test
T4 construct: purchased R&D Systems 2967-MP
T4 sequence (Q10738 95-264): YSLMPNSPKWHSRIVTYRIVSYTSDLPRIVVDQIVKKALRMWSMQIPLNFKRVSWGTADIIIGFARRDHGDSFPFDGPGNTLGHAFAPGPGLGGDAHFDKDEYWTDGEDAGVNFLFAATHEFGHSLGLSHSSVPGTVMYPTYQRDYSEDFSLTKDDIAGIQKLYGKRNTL
Source text: as §1
(§3) Recombinant mouse MMP-7 (from R&D Systems, 2967-MP) is chemically activated in accordance with the manufacturer's instructions using APMA. 1 μl of the test compound to be analysed (as a solution in DMSO, suitable concentrations, for example, 1 nM to 30 μM) is pipetted into 24 μl of activated enzyme (final concentration, for example, 0.5 nM) in reaction buffer (50 mM Tris/HCl pH 7.5, 10 mM CaCl2, 150 mM NaCl, 0.05% Brij®-35) in a white 384-hole microtiter plate (MTP). The enzymatic reaction is started by adding the intramolecularly quenched Mca-Lys-Pro-Leu-Gly-Leu-Dpa(Dnp)-Ala-Arg-NH2 substrate (final concentration, for example, 5 μM; R&D Systems, ES-010), so as to result in a total test volume of 50 μl. The course of the MMP-7 reaction is measured by measuring the fluorescence intensity (excitation 320 nm, emission 410 nm) over a suitable period of time (for example over 120 min at a temperature of 32° C.).

[5] = target: T5, mouse MMP-12 (Mus musculus, UniProt P34960); assay: In vitro mouse MMP-12 inhibition test (standard or high-sensitivity)
T5 construct: purchased R&D Systems 3467-MP
Source text: as §1
as §3, with “MMP-12” for “MMP-7”, “3467-MP)” for “2967-MP)”, “autocatalytically” for “chemically”, “instructions.” for “instructions using APMA.”, “1” for “0.5”
In this case, an enzyme concentration ten times lower is used (final concentration, for example, 0.1 nM) in order to achieve an elevated test sensitivity. The incubation period chosen for the test is correspondingly longer (for example 16 hours).

T1 sequence (P08254 100-477): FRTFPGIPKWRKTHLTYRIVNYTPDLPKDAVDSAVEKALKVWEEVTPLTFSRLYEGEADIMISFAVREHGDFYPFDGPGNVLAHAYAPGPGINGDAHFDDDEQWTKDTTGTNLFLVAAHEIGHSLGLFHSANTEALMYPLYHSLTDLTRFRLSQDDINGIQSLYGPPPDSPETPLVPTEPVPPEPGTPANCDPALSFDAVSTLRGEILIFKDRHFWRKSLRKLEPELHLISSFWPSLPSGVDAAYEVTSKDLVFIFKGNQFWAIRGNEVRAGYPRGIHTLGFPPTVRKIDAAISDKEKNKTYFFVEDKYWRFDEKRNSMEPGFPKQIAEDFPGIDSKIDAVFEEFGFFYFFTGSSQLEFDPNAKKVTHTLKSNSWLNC
T5 sequence (P34960 110-473): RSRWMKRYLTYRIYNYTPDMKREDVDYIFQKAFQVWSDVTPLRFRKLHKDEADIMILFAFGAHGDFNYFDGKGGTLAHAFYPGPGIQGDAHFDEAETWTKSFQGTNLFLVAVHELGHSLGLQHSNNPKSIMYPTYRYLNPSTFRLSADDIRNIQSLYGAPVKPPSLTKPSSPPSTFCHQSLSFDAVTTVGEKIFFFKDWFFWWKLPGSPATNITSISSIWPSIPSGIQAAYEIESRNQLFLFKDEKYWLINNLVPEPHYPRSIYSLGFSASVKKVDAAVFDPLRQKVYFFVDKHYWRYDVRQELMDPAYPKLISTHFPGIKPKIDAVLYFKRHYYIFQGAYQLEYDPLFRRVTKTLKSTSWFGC
T3 sequence (P33434 110-662): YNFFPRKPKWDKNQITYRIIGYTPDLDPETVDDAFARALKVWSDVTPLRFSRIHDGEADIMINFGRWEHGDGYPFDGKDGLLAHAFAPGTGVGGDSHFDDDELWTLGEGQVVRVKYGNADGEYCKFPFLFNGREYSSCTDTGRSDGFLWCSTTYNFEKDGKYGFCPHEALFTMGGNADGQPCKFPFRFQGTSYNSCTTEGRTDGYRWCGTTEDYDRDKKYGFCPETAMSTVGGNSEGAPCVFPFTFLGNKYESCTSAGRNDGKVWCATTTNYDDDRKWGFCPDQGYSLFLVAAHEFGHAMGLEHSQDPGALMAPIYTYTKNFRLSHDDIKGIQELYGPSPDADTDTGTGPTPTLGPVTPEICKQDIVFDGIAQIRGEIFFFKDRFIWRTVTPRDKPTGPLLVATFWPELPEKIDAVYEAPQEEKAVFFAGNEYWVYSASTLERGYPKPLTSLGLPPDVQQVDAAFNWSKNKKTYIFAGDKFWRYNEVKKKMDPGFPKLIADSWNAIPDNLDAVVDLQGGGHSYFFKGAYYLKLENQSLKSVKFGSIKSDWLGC
T2 sequence (P22894 101-467): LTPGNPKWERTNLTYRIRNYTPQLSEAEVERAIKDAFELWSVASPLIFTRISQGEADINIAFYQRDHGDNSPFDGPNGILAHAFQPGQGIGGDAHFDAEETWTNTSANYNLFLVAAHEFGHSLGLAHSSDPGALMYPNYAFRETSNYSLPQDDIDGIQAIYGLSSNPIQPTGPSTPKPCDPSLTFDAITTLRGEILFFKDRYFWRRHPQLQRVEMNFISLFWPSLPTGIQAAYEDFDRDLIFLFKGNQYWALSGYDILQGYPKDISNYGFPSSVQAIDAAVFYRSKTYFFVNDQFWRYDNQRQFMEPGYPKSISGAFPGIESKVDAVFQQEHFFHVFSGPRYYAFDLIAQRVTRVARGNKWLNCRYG

Compound	IC50 [1] [nM]	IC50 [2] [nM]	IC50 [3] [nM]	IC50 [4] [nM]	IC50 [5] [nM]
O=C(O)[C@@H]1[C@@H](Cn2nnc3ccc(C(F)(F)F)cc3c2=O)CC[C@H]1C(=O)c1ccc(SCC2CCOCC2)cc1 (single isomer, unassigned) [Example 15, (+)-(1RS,2SR,5RS)-2-{[4-Oxo-6-(trifluoromethyl)-1,2,3-benzotriazin-3(4H)-yl]methyl}-5-{4-[(tetrahydro-2H-pyran-4-ylmethyl)sulphanyl]benzoyl}cyclopentanecarboxylic acid]	95	0.9			
Cc1ccc2nnn(C[C@H]3CC[C@@H](C(=O)c4ccc(OCCC5CCOCC5)cc4)[C@@H]3C(=O)O)c(=O)c2c1 (single isomer, unassigned) [Example 20, (+)-(1RS,2SR,5RS)-2-[(6-Methyl-4-oxo-1,2,3-benzotriazin-3(4H)-yl)methyl]-5-{4-[2-(tetrahydro-2H-pyran-4-yl)ethoxy]benzoyl}cyclopentanecarboxylic acid]	440	10	340	200	1.7
O=C(O)[C@H]1[C@H](Cn2nnc3ccccc3c2=O)CC[C@@H]1C(=O)c1ccc(OCCC2CCOCC2)cc1 (stereo in doubt) [Example 4, (+/−)-(1RS,2SR,5RS)-2-[(4-Oxo-1,2,3-benzotriazin-3(4H)-yl)methyl]-5-{4-[2-(tetrahydro-2H-pyran-4-yl)ethoxy]benzoyl}cyclopentanecarboxylic acid]		98	490	1400	7.7
O=C(O)[C@H]1[C@H](Cn2nnc3ccccc3c2=O)CC[C@@H]1C(=O)c1ccc(OCC2CCOCC2)cc1 (stereo in doubt) [Example 1, (+/−)-(1RS,2SR,5RS)-2-[(4-Oxo-1,2,3-benzotriazin-3(4H)-yl)methyl]-5-[4-(tetrahydro-2H-pyran-4-ylmethoxy)benzoyl]cyclopentanecarboxylic acid]	1100	11	170	85	3.3
(+)-(1RS,2SR,5RS)-2-{[4-Oxo-6-(trifluoromethyl)-1,2,3-benzotriazin-3(4H)-yl]methyl}-5-[4-(tetra-hydro-2H-pyran-4-ylmethoxy)benzoyl]cyclopentanecarboxylic acid [Example 8]	100	0.6			
O=C(O)[C@H]1[C@H](Cn2nnc3ccc(C(F)(F)F)cc3c2=O)CC[C@@H]1C(=O)c1ccc(OCC2CCOCC2)cc1 (racemic) [Example 7, (+/−)-(1RS,2SR,5RS)-2-{[4-Oxo-6-(trifluoromethyl)-1,2,3-benzotriazin-3(4H)-yl]methyl}-5-[4-(tetrahydro-2H-pyran-4-ylmethoxy)benzoyl]cyclopentanecarboxylic acid]	190	1			
O=C(O)[C@@H]1[C@@H](Cn2nnc3ccc(C(F)(F)F)cc3c2=O)CC[C@H]1C(=O)c1ccc(OCCC2CCOCC2)cc1 (single isomer, unassigned) [Example 11, (+)-(1RS,2SR,5RS)-2-{[4-Oxo-6-(trifluoromethyl)-1,2,3-benzotriazin-3(4H)-yl]methyl}-5-{4-[2-(tetrahydro-2H-pyran-4-yl)ethoxy]benzoyl}cyclopentanecarboxylic acid]	260	5.6	640	210	9.4
O=C(O)[C@H]1[C@H](Cn2nnc3ccc(C(F)(F)F)cc3c2=O)CC[C@@H]1C(=O)c1ccc(OCCC2CCOCC2)cc1 (stereo in doubt) [Example 10, (+/−)-(1RS ,2S R,5RS)-2-{[4-Oxo-6-(trifluoromethyl)-1,2,3-benzotriazin-3(4H)-yl]methyl}-5-{4-[2-(tetrahydro-2H-pyran-4-yl)ethoxy]benzoyl}cyclopentanecarboxylic acid]	120	3.9	300	130	2.8
O=C(O)[C@@H]1[C@@H](Cn2nnc3ccccc3c2=O)CC[C@H]1C(=O)c1ccc(OCC2CCOCC2)cc1 (stereo in doubt) [Example 2, (+)-(1RS,2SR,5RS)-2-[(4-Oxo-1,2,3-benzotriazin-3(4H)-yl)methyl]-5-[4-(tetrahydro-2H-pyran-4-ylmethoxy)benzoyl]cyclopentanecarboxylic acid]	710	4.7	58	52	0.85
Cc1ccc2nnn(C[C@@H]3CC[C@H](C(=O)c4ccc(OCCC5CCOCC5)cc4)[C@H]3C(=O)O)c(=O)c2c1 (racemic) [Example 19, (+/−)-(1RS,2SR,5RS)-2-[(6-Methyl-4-oxo-1,2,3-benzotriazin-3(4H)-yl)methyl]-5-{4-[2-(letrahydro-2H-pyran-4-yl)ethoxy]benzoyl}cyclopentanecarboxylic acid]	1400	28	840	630	7.6
O=C(O)[C@@H]1[C@@H](Cn2nnc3ccccc3c2=O)CC[C@H]1C(=O)c1ccc(OCCC2CCOCC2)cc1 (single isomer, unassigned) [Example 5, (+)-(1RS,2SR,5RS)-2-[(4-Oxo-1,2,3-benzotriazin-3(4H)-yl)methyl]-5-{4-[2-(tetrahydro-2H-pyran-4-yl)ethoxy]benzoyl}cyclopentanecarboxylic acid]	360	15	45	130	0.67
